113 molecules from a melting point compilation (Tetko et al.) can be followed below.

SMILES strings stand for the structures.

By melting point is commonly meant the temperature of the solid-liquid transition.

For `COc1cc(OC)nc(NC(=O)NS(=O)(=O)c2ncccc2C(=O)N(C)C)n1`, the melting point worked out at 145 °C. The molecule `O=C(O)c1c(O)cccc1F` displayed a melting point of 160 °C. Turning to `COc1ccc2c(c1)CCC(C(=O)O)C2C` (stereo not drawn), the melting point was 133 °C.

Turning to `CCC1CC2CC3c4[nH]c5cc(OC)ccc5c4CCN(C2)C13` (stereo not drawn), the melting point was 214 °C.

Turning to `OC(Cn1ccnc1)c1ccc(Cl)cc1Cl` (stereo not drawn), the melting point is 134 to 138 °C. Molecule `O=C1CC(=O)CC(c2ccccc2)C1` gave a melting point of 188 °C. For `O=C(O)c1cccc(N2CCCC2)n1`, the melting point lay in the range of 134 to 136 °C. `S=C(Nc1ccccc1)N1CC(c2ccccc2)CC1c1ccccc1` (stereo not drawn) showed a melting point of 188 °C. The molecule `O=C(O)c1ccc(Br)nc1` came in with a melting point of 184 °C. `O=Cc1cc(O)ccc1I` returned a melting point of 125 to 126 °C. On to `Cc1cccc2c(O)cc(C(F)(F)F)nc12`, for which the melting point was 128 to 131 °C.

`CC(=O)CC(=O)Nc1ccccc1C` had a melting point of 105 °C. As for `CC(C)(C)c1ccc(C(C)(C)C)cc1`, the melting point came to 79.5 °C. In turn, `N#Cc1ccc(CCc2ccc(C#N)cc2)cc1` gave a melting point of 198 to 203 °C. Regarding `CCO[Si](CCCNC(=O)c1ccc([N+](=O)[O-])cc1)(OCC)OCC`, the melting point was 55 °C. In turn, `Fc1cc(CCl)c2c(c1)COCO2` showed a melting point of 78 to 80 °C.

Molecule `CC(=O)c1c(-c2cccc(Cl)c2Cl)noc1C` had a melting point of 62 to 64 °C. `CN1CCN(C(=O)OC2C3=C(SCCS3)C(=O)N2c2ccc3ccc(Cl)nc3n2)CC1` (stereo not drawn) came in with a melting point of 280 °C.

On to `O=C1C(=O)N(O)C2CCCCC2N1O` (stereo not drawn), for which the melting point is 243 to 245 °C. `O=C=Nc1ccc(-c2ccco2)cc1` showed a melting point of 66 °C.

With `COc1cc(C)c(C(O)C#N)cc1OC` (stereo not drawn), the melting point is 80 °C. In turn, `CCC(CO)NC(=O)C1C=C2c3cccc4c3c(cn4C)CC2N(C)C1` (stereo not drawn) returned a melting point of 195 °C. Turning to `O=C(Nc1ccc(F)cc1)c1c(O)c(F)c(F)c(F)c1F`, the melting point came to 130 °C.

`CCN(O)CC` came in with a melting point of 10 °C. The value for `N#C/C(=N/Nc1ccc(Br)cc1)c1nc(-c2ccccc2)cs1` was 169 °C; that for `CCOc1ccc(N=C(CNc2ccc(OCC)cc2)Nc2ccc(OCC)cc2)cc1` was 113 °C.

Turning to `N#Cc1ccc(-c2ccsc2)cc1`, the melting point lay in the range of 109 to 111 °C. As to `COC(=O)C12C=CC(CC1)C1C(=O)OC(=O)C12` (stereo not drawn), the melting point fell in the range of 116 to 118 °C. Take `CN1CCCN=C1C=Cc1cccs1`: the melting point was determined as 178 °C. Molecule `O=C(Cl)c1ccc2nsnc2c1` gave a melting point of 111 °C. On to `CCCCCCCCCCCC(C)CC` (stereo not drawn), for which the melting point was -32 °C.

In turn, `Cc1nnsc1C(=O)O` had a melting point of 185 °C. The value for `COP(=O)(OC)C(O)C(Cl)(Cl)Cl` (stereo not drawn) was 80 °C. As for `O=C(C[N+](=O)[O-])c1cccc(C(=O)C[N+](=O)[O-])c1`, the melting point was 160 °C. In turn, `Cn1c(-c2ccc(Cl)cc2)cnc1S` yielded a melting point of 244 to 247 °C. Regarding `CCn1nc(C)cc1C(=O)O`, the melting point stood at 139 °C.

Molecule `COC(=O)C1(S(=O)(=O)c2ccccc2)CCCCC1` came in with a melting point of 114 °C.

As to `Cc1c(C)c(C)c(N)c(C)c1C`, the melting point stood at 152 °C. On to `CC=NO`, for which the melting point was found to be 45 °C. `CCOC(=O)CC(=O)C=P(c1ccccc1)(c1ccccc1)c1ccccc1` had a melting point of 101 to 106 °C. `CCc1ccc2cc(O)c(O)cc2c1` came in with a melting point of 149 °C. Turning to `O=Nc1c(-c2ccc3ccccc3c2)nc2ncccn12`, the melting point turned out to be 249 °C. For `CC(C)NC(=O)C(C(F)(F)F)C(F)(F)F` the value was 136 °C. The value for `CCCCCCCCCC1CCCC1` was -29 °C; that for `C#CC1(O)C=CC(O)(C#C)C=C1` (stereo not drawn) was 125 °C. For the molecule `CCN(C#N)CC`, the melting point was -80.6 °C. For `CC1CCCC(C)(C)C1=O` (stereo not drawn) the value was -31.8 °C; for `O=C(O)Cc1ccc2c(c1)NC(=O)C2`, 238 °C.

Take `CC(C)n1cc(C#N)c(=O)n(Cc2ccccc2)c1=O`: the melting point fell in the range of 151 to 154 °C. Turning to `O=NN(c1ccccc1)c1ccccc1`, the melting point was 66.5 °C. `CC(=O)NC(Cc1ccc2c(c1)OCO2)C(=O)O` (stereo not drawn) came in with a melting point of 92 °C. Molecule `CCCCC#Cc1cncc(C(=O)NN)c1` displayed a melting point of 158 to 161 °C. Consider `O=[N+]([O-])c1c(O)c(Cl)cc(Cl)c1Cl`, for which the melting point amounted to 92.5 °C.

On to `NS(=O)(=O)c1ccc(Sc2cccs2)s1`, for which the melting point was 105 to 108 °C. For `Ic1ccc(I)nc1` the value was 155 °C. `CCOP(=O)(OCC)Oc1c2cccc1Cc1cccc(c1O)Cc1cccc(c1OP(=O)(OCC)OCC)Cc1cccc(c1O)C2` gave a melting point of 219 to 224 °C.

The molecule `COC(=O)/C=C(/C(=O)OC)N(Nc1ccccc1N=Nc1ccccc1)c1ccccc1` gave a melting point of 153 to 154 °C.

Regarding `O=c1c(Cl)c(SCc2ccccc2)cnn1-c1ccccc1`, the melting point lay within 138 to 140 °C. For the molecule `O=C1C(c2ccc(Br)cc2)=C(O)c2ccccc21`, the melting point lay in the range of 137 to 138 °C. For `Cc1onc(-c2ccccc2)c1N=C=S` the value was 73 to 77 °C; for `CCCCC(CC)COC(=O)C=CC(=O)OCC(CC)CCCC` (stereo not drawn), -10 °C. Molecule `CNc1ccc(C(=O)OC)cc1` returned a melting point of 95 °C.

The molecule `ClC1CCCCC1Cl` (stereo not drawn) showed a melting point of -1.5 °C. Regarding `CC1=C(C(=O)Nc2ccccc2)SCCO1`, the melting point stood at 91.5 °C. In turn, `COc1ccc(C=C(CC(=O)O)C(=O)O)cc1` had a melting point of 186 to 188 °C.

In turn, `CCC(C)CCC(C)(O)CC` (stereo not drawn) had a melting point of -67.5 °C. Molecule `Cc1cnc(N)c(Br)c1` had a melting point of 72 °C. The value for `COC(=O)C1=C(C(=O)OC)Cc2cc3c(cc2C1)CC(C(=O)OC)=C(C(=O)OC)C3` was 209 °C; that for `N=c1oc2ccccc2cc1C(N)=S` was 254 °C. For `O=C1c2ccccc2CC2CCc3ccccc3N12` (stereo not drawn) the value was 130 °C. For `Cc1cc(Br)c(N)c([N+](=O)[O-])c1` the value was 58 to 59 °C; for `O=C1CN=C(c2ccccc2)c2cc(Cl)ccc2N1CC(F)(F)F`, 164 °C.

As to `N[C@@H](Cc1ccccc1)C(=O)O`, the melting point was 270 to 275 °C. The value for `CC(C)(Oc1ccc(Cl)cc1)C(N)=O` was 126 to 129 °C. Molecule `CC1=CC(=O)CCC1` came in with a melting point of -21 °C.

Take `Oc1c(F)c(F)c2c(F)c(F)c(F)c(F)c2c1F`: the melting point is 120 to 124 °C.

The molecule `Cc1ccc(OP2(=S)Oc3ccc(Cl)cc3Sc3cc(Cl)ccc3O2)c(C)c1` came in with a melting point of 149 °C. Regarding `CCOc1cc(OCC)cc(OCC)c1`, the melting point turned out to be 43.5 °C.

The molecule `Cc1ccc(Br)cc1Br` showed a melting point of -9.7 °C. In the case of `Cc1nc2sc3c(c2c(=O)n1NC(=O)c1ccc(Cl)cc1)CCCC3`, the melting point fell in the range of 234 to 235 °C. On to `NC(=O)C(=O)O`, for which the melting point stood at 210 °C. Turning to `CCOC(=O)NC(=O)CCl`, the melting point was 127 to 131 °C.

For `Brc1ccc2[nH]ncc2c1`, the melting point is 123 to 124 °C. Molecule `N#CC12CCN(CC1)CC2` registered a melting point of 133 °C. Turning to `Nc1ccc(Sc2ccc(N)cc2)cc1`, the melting point is 108 °C.

With `CCOC(=O)c1c(N)sc2c1CCN(C(=O)OC(C)(C)C)C2`, the melting point turned out to be 153 °C.

Consider `Cc1ccc(C2C(C#N)=C(N)N3C(=C2C#N)Sc2ccccc23)cc1` (stereo not drawn), for which the melting point was 200 to 202 °C. Regarding `COc1ccc(-c2csc(/C(C#N)=N\Nc3ccc(O)cc3)n2)cc1`, the melting point worked out at 235 °C.

`NCc1cccc(-c2ccsc2)c1` had a melting point of 80 °C. `CCc1ccnc(N)c1` displayed a melting point of 67 °C. The molecule `Cc1onc2c(-c3ccc(Cl)cc3)nnc(-c3ccccc3)c12` showed a melting point of 171 °C. The molecule `CC(=O)CCC(C)C` displayed a melting point of -74 °C. The molecule `O=C(O)C12CC3CC(CC(Cl)(C3)C1)C2` displayed a melting point of 136 to 140 °C. The value for `CC(=O)c1ccnc(Cl)c1` was 36.5 to 39 °C; that for `COc1ccc(C2Cc3ccccc3C(=O)O2)cc1` (stereo not drawn) was 108 °C. `CC(C)=CC(=O)NS(=O)(=O)c1ccc(N)cc1` gave a melting point of 184 °C. For `COc1ccc(C(C(=O)NCc2ccccc2)N(Cc2ccc(C)o2)C(=O)CNC(=O)OC(C)(C)C)cc1OC` (stereo not drawn) the value was 177 °C; for `CN(C)C(CSC(N)=O)CSC(N)=O`, 188 °C; for `O=C(CC(=O)c1ccccc1O)c1ccccc1`, 120 °C. In turn, `Cc1c([N+](=O)[O-])cc(C(C)C)c(O)c1[N+](=O)[O-]` showed a melting point of 55.5 °C. `O=C(c1nn2c(nc(=O)c3ccccc32)s1)c1cccc2ccccc12`: the melting point was 241 °C. As to `c1ccc(C/C(=N\Nc2ccccc2)c2ccc3ccccc3c2)cc1`, the melting point lay within 165 to 167 °C. Turning to `Cc1noc(-c2ccccc2C=O)n1`, the melting point was in the range of 66 to 68 °C. For the molecule `NC(=O)c1cc(Cl)nc(Cl)c1`, the melting point was 202 to 206 °C. For `CC[C@H](C)[C@@H](N)C(=O)O` the value was 285 °C; for `NC(=O)c1nc(-c2ccccc2)n(-c2ccc(Cl)c(COCC(F)(F)C(F)(F)F)c2)n1`, 146 °C; for `Cc1nn(C)c(N2CCOCC2)c1C=O`, 74 to 76 °C. For `CC1=NN(CN2CCOCC2)C(=O)/C1=N\Nc1cc(Cl)c(Cl)cc1Cl` the value was 175 °C; for `Cc1ccc(Br)cc1[N+](=O)[O-]`, 47 °C; for `CCOC(=O)/C=C/c1ccc2ccc(=O)[nH]c2c1`, 209 to 210 °C. `Oc1ccccc1/C=C/c1ccccc1` registered a melting point of 147 °C. For `CC(Cl)C(C)Cl` (stereo not drawn) the value was -80 °C; for `Cc1ccc(S(=O)(=O)N(Cl)Cl)cc1`, 83 °C.
